Entries after “also recorded” stand apart in the source; their conditions may differ. No end group written: not given here.
Legend:
GPRC6A [1] = tested on: GPRC6A; parameters: method as in 2 sources, ref 5 = [5]; PMID 15576628; doi:10.1124/mol.104.007559; 5. Wellendorph P Deorphanization of GPRC6A: a promiscuous L-alpha-amino acid receptor with preference for basic amino acids Molecular Pharmacology 2005 67 3 589 97 10.1124/mol.104.007559 15576628 ||| ref 6 = [6]; PMID 20947496; doi:10.1074/jbc.M110.158063; 6. Pi M Parrill AL Quarles LD GPRC6A mediates the non-genomic effects of steroids Journal of Biological Chemistry 2010 285 51 39953 64 10.1074/jbc.M110.158063 20947496 PMC3000977; settings: cited from earlier work
[2] = Far-UV circular dichroism; type: physicochemical; settings: 25 °C, PBS (20 mM sodium phosphate, pH 7.4, 0.1 M NaCl), 70 μg/ml
Method: The conformational properties of SHBG141–161 were investigated by far-UV circular dichroism (CD) on a Jasco J-710 spectropolarimeter, equipped with a Peltier temperature control system. The molar concentration of the peptide was determined spectrophotometrically by recording the absorbace at 257 nm, using an absorptivity value for phenylalanine of 200 M-1·cm-1. CD spectra were recorded at 25 °C in a 1-mm pathlength quartz cell at a scan-speed of 10 nm/min, with a response time of 16 sec, and resulted from the average of two accumulations after baseline subtraction. CD signal was expressed as the mean residue ellipticity (θ) = θobs·MRW/(10·l·c), where θobs is the observed signal in degrees, MRW is the protein mean residue weight, l is the cuvette pathlength in cm, and c is the protein concentration in g/ml.

GPRC6A [3] = assay: Displacement of labelled ucOCN by SHBG141–161 on HEK-293 cells transfected with human Gprc6a; type: binding; settings: for staining signal for labelled ucOCN vs ucOCN alone: 1 nM biotinylated ucOCN, 1 h room temperature, binding buffer pH 7.4, streptavidin-FITC, image analysis, mean of 3 independent experiments
Method: The binding of SHBG141–161 to GPRC6A was assessed by displacement experiments as previously described. To this aim, HEK-293 cells were transfected with human Gprc6a gene (Fig. 2C-I,II). The efficiency of the procedure was evaluated by real-time PCR, allowing the identification of a specific signal for Gprc6a gene only in transfected cells. Accordingly, a specific membrane signal was observed by immunostaining only in transfected cells. On these bases, HEK-293 cells transfected with Gprc6a gene were incubated with 1 nM labelled ucOCN and SHBG141–161 at the concentration of 0, 10 nM (10×) and 100 nM (100×) (Fig. 2D-I,II).
Human embryonic kidney (HEK)-293T cells (passage number 11 to 15) were obtained from the American Type Culture Collection (ATCC®-LGC Standards Sesto San Giovanni, MI, Italy) and cultivated in DMEM [ATCC®; RRID 30–2002) and supplemented with 10% fetal bovine serum (Euroclone, Milano, Italy; RRID: ECS0180L) and 1%antibiotic/antimycotic mixture in a humidified incubator at 37 °C with 5% CO2. Expression vector containing wild-type (WT) human GPRC6A cDNA (OriGene Technologies, Inc) was used according to manufacturer’s instruction. Briefly, cultured HEK- 293 T cells at 70% of confluence were transfected by FuGENE 6 (Roche Diagnostics) with 1 μg/well of GPRC6A-pcDNA and maintained for 48 hours, followed by overnight starving in serum-free condition to achieve quiescence. HEK-293T cells transfected with empty vector were used as negative controls. Starved cells were fixed in 1% paraformaldehyde and used for binding assessment by incubation for 1 h at room temperature with biotinylated ucOCN, with or without SHBG141–161 in ice-cold-binding buffer (50 mM Tris-HCl [pH 7.4], 10 mM MgCl2, 0.1 mM EDTA, and 0.1% BSA) according to the different experimental conditions used. After extensive washing in cold PBS, samples were incubated with streptavidin-Fluorescein isothiocyanate (FITC) (dilution 1:200; Sigma-Aldrich; RRID: S3762). Evaluation of GPRC6A expression by immunofluorescence was performed as described for β-TC6 (see below). Computer assisted image analysis was performed by the ImageJ image analysis software, powered by routines specifically developed by our group as previously described[43],[44]. […]

MA-10 cells = assay: Testosterone (T) release from Leydig MA-10 cells (GPRC6A-mediated); type: cell-based, Mouse; settings: for T release vs basal: 48 hours; for agonist activity (T release) after GPRC6A blockade: pre-incubation with anti-GPRC6A polyclonal antibodies 20 mg/mL, 30 minutes at 37 °C
Method: Human ucOCN was obtained from chemical decarboxylation of cxOCN, purchased from Bachem AG (Bachem, Bubendorf, Switzerland), as previously described. For displacement experiments, an aliquot ucOCN underwent chemical biotinylation as previously described[9],[41]. Unliganded human SHBG was purchased by […], Belgium). Human chorionic gonadotropin Gonasi was purchased by IBSA Farmaceutici Srl (Italy). Mouse Leydig-carcinoma cell line MA-10 (passage number 3 to 8; ATCC®; RRID: CRL-1573) were cultured on 0,1% gelatin/PBS-coated plasticware according to the manufacturer's instructions and maintained in DMEM:F12 Medium (ATCC®; RRID: 30-2006; pH 7,4) supplemented with additional 20 mM HEPES and horse serum to a final concentration of 15%. For immunofluorescence experiments, cells were let attach on 0,1% gelatin/PBS-coated round-coverslips (ø 13 mm, Menzel-Gläser-VWR International Srl, Milan, Italy) and then washed and fixed with 4% paraformaldehyde/PBS solution at room temperature for 15 min. After membrane permeabilization with 1% Triton X/PBS solution for 10 min at room temperature, cells were saturated with 5% bovine serum albumin/5% normal donkey serum/PBS solution for 1 hour and then incubated with rabbit-polyclonal anti-mouse GPRC6A IgG (dilution 1:200; Santa Cruz Biotechnology Inc. Heidelberg Germany; RRID: sc-67302,) and goat-polyclonal anti-human INSL3 IgG (dilution 1:200; Santa Cruz Biotechnology Inc; RRID: sc-48550) at 4 °C overnight. After extensive washing, primary immunoreaction was detected by appropriate secondary reagent, respectively: biotin conjugated-anti rabbit IgG (dilution 1:100; Vector Laboratories, Peterborough, UK; RRID: BA-1000) followed by Streptavidin […], (dilution 1:100; GeneTex/Prodotti Gianni, Milano, Italy; RRID: GTX85907) and FITC conjugated-anti goat IgG (dilution 1:100; Abcam, Milan, Italy; RRID: ab6737). Samples were then counterstained with 4',6-diamidino-2-phenylindole (DAPI), mounted with anti-fade buffer and then analyzed with Video-Confocal (VICO) fluorescence microscope (Nikon, Firenze, Italy). […] RRID: KGE010) according to manufacturer's instructions. Receptor blockade experiments were performed by pre-incubating cultured cells with anti-GPRC6A polyclonal antibodies (final concentration of […]; Santa Cruz Biotechnology Inc; RRID: sc-67302) for 30 minutes at 37 °C as previously described.

β-TC6 cells = assay: Insulin release from Langerhans β-TC6 cells (GPRC6A-mediated); type: cell-based, Mouse; settings: for insulin release vs basal: 2 hours at 37 °C in 3 mM glucose/HBSS; for agonist activity (insulin release) after GPRC6A blockade: pre-incubation with anti-GPRC6A polyclonal antibodies 20 mg/mL, 30 minutes at 37 °C
[4] = SHBG141–161 concentrations greater than 10^−9 M, preliminary experiments, data not shown

## magnesium
GPRC6A [1]
  activation of GPRC6A: activated

## IALGGLLFPASNLRLPLVPAL [SHBG141–161]
[2]
  conformation by far-UV CD: random or non-regular conformation
  far-UV CD minimum: 200 nm
GPRC6A [3]; 0, 10 nM and 100 nM SHBG141–161, 1 nM labelled ucOCN
  competition with ucOCN for binding to GPRC6A (overall result): progressive reduction of the signal for labelled ucOCN; also recorded: compete with ucOCN for the binding to GPRC6A; also recorded: partial competition activity
GPRC6A [3]; SHBG141–161 10 nM (10×)
  staining signal for labelled ucOCN vs ucOCN alone: significant reduction of the staining signal for ucOCN
GPRC6A [3]; SHBG141–161 100 nM (100×)
  staining signal for labelled ucOCN vs ucOCN alone: significant reduction of the staining signal for ucOCN
MA-10 cells; SHBG141–161, particularly 10^−13 to 10^−11M, five independent experiments
  T release vs basal: increase of T release
MA-10 cells; [4]
  T release at high concentration: not effective
MA-10 cells
  agonist activity (T release) after GPRC6A blockade: completely abolished the agonist activity
β-TC6 cells; SHBG141–161 10^−13 to 10^−10 M, five independent experiments
  insulin release vs basal: significant increased insulin levels in culture supernatants
β-TC6 cells; [4]
  insulin release at high concentration: not effective
β-TC6 cells
  agonist activity (insulin release) after GPRC6A blockade: completely abolished the agonist activity

## zinc
GPRC6A [1]
  activation of GPRC6A: activated

## ucOCN: Human ucOCN was obtained from chemical decarboxylation of cxOCN, purchased from Bachem AG (YLYQWLGAPVPYPDPLEPRREVCELNPDCDELADHIGFQEAYRRFYGPV; ends and bridges not checked; also: undercarboxylated by chemical decarboxylation of carboxylated OCN; UniProt P02818 52-100, looked up)
GPRC6A [3]; 1 nM labelled ucOCN, HEK-293 + GPRC6A
  membrane signal of labelled ucOCN alone, transfected cells: clear membrane signal associated with GPRC6A expression
GPRC6A [3]; 1 nM labelled ucOCN, HEK-293 without GPRC6A
  staining of labelled ucOCN, non-transfected cells: absence of significant staining in non-transfected cells
MA-10 cells
  agonist activity (T release) after GPRC6A blockade: completely abolished the agonist activity
MA-10 cells; ucOCN 0,5–2 nM
  T release vs basal: progressive and significant increase of T release
β-TC6 cells
  agonist activity (insulin release) after GPRC6A blockade: completely abolished the agonist activity
β-TC6 cells; ucOCN 0,5–2 nM
  insulin release vs basal: significant and dose dependent increase of insulin release

## C[C@]12CC[C@H]3[C@@H](CCC4=CC(=O)CC[C@@]43C)[C@@H]1CC[C@@H]2O [T, testosterone]
GPRC6A [1]
  non-genomic action mediated by GPRC6A: mediator of non-genomic action of T

## N=C(N)NCCC[C@H](N)C(=O)O [L arginine]
GPRC6A [1]
  activation of GPRC6A: activated

## calcium
GPRC6A [1]
  activation of GPRC6A: activated

## NCCCC[C@H](N)C(=O)O [L-lysine]
GPRC6A [1]
  activation of GPRC6A: activated

— publication PMC6923452, “SHBG141–161 Domain-Peptide Stimulates GPRC6A-Mediated Response in Leydig and β-Langerhans cell lines” (Scientific Reports, 2019)
